PubChem BioAssay AID248 (DTP/NCI, 2004)
Toxic doses and inconclusive results are not listed.

Test system: L1210 leukemia ip in BDF1 mice, survival T/C
Experiment: NCI In Vivo Anticancer Drug Screen. Data for tumor model L1210 Leukemia (intraperitoneal) in B6D2F1 (BDF1) mice
Settings: higher = longer survival
Summary of the method: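 Tumor was transplanted into mice, which were then dosed with test compound or vehicle alone. Survival was recorded for each group, and the treated figure was expressed relative to the control figure.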

[1] = endpoint: mean survival time, dose: 100.0 mg/kg/injection, schedule: Q01DX005 (ip), vehicle: saline
[2] = endpoint: mean survival time, dose: 200.0 mg/kg/injection, schedule: Q01DX005 (ip), vehicle: saline

SMILES: O=c1n[n+]([O-])ccn1C1OC(CO)C(O)C1O (stereo not given)
- T/C [1]: 111 % of control
- T/C [2]: 111 % of control
- T/C (endpoint: mean survival time, dose: 200.0 mg/kg/injection, schedule: Q01DX009 (ip), vehicle: saline): 121 % of control
- T/C (endpoint: median survival time, dose: 200.0 mg/kg/injection, schedule: Q01DX009 (ip), vehicle: saline): 176 % of control
- T/C (endpoint: median survival time, dose: 250.0 mg/kg/injection, schedule: Q01DX009 (ip), vehicle: saline): 280 % of control
- T/C (endpoint: median survival time, dose: 300.0 mg/kg/injection, schedule: Q01DX009 (ip), vehicle: saline): 352 % of control
- T/C (endpoint: median survival time, dose: 350.0 mg/kg/injection, schedule: Q01DX009 (ip), vehicle: saline): 97 % of control
- T/C (endpoint: median survival time, dose: 400.0 mg/kg/injection, schedule: Q01DX009 (ip), vehicle: saline): 97 % of control
- T/C (endpoint: median survival time, dose: 450.0 mg/kg/injection, schedule: Q01DX009 (ip), vehicle: saline): 152 % of control

SMILES: O=S(=O)(Nc1ccccc1)c1ccccc1C(O)(c1ccccc1)c1ccccc1
- T/C (endpoint: mean survival time, dose: 100.0 mg/kg/injection, schedule: Q01DX001 (ip), vehicle: carboxymethylcellulose (CMC)): 106 % of control
- T/C (endpoint: mean survival time, dose: 200.0 mg/kg/injection, schedule: Q01DX001 (ip), vehicle: carboxymethylcellulose (CMC)): 90 % of control
- T/C (endpoint: mean survival time, dose: 400.0 mg/kg/injection, schedule: Q01DX001 (ip), vehicle: carboxymethylcellulose (CMC)): 93 % of control

SMILES: CC[C@H](c1ccc(O)cc1)[C@@H](CC)c1ccc(O)cc1
- T/C (endpoint: mean survival time, dose: 62.5 mg/kg/injection, schedule: Q01DX010 (sc), vehicle: steriod suspending solution): 104 % of control
- T/C (endpoint: mean survival time, dose: 125.0 mg/kg/injection, schedule: Q01DX010 (sc), vehicle: steriod suspending solution): 95 % of control
- T/C (endpoint: mean survival time, dose: 250.0 mg/kg/injection, schedule: Q01DX010 (sc), vehicle: steriod suspending solution): 104 % of control

SMILES: NCCOP(=O)(O)OCC1OC(n2cnc3c(N)ncnc32)C(O)C1O (stereo not given)
- T/C [1]: 92 % of control
- T/C [2]: 92 % of control

SMILES: CC1=CC(C)(C)NC(=S)N1c1cccc([N+](=O)[O-])c1
- T/C (endpoint: mean survival time, dose: 224.0 mg/kg/injection, schedule: Q01DX Z (ip), vehicle: methylcellulose (MC)): 88 % of control
- T/C (endpoint: mean survival time, dose: 334.0 mg/kg/injection, schedule: Q01DX Z (ip), vehicle: methylcellulose (MC)): 89 % of control
- T/C (endpoint: mean survival time, dose: 500.0 mg/kg/injection, schedule: Q01DX Z (ip), vehicle: methylcellulose (MC)): 94 % of control
